# In patent publication US20190365741A1, “COMBINATIONS OF THE CDK4/6 INHIBITOR LEE011 AND THE MEK1/2 INHIBITOR TRAMETINIB, OPTIONALLY FURTHER COMPRISING THE PI3K INHIBITOR BYL719 TO TREAT CANCER” (Novartis AG, priority 2015, published 2019):
# Entries after “also recorded” stand apart in the source; their conditions may differ.
# What was measured:
# Format in all cases: cell-based
# COLO-205 = test: Cell proliferation (cell count by microscopy), single agents and combinations; conditions: Homo sapiens; COLO-205, 72 h, concentration giving 50% of cell counts relative to DMSO
# Description: (§1) The compounds were dissolved in 100% DMSO (Sigma, Catalog number D2650) at concentrations of 20 mM and stored at −20° C. until use.
# (§2) Colorectal cancer cell lines used for this study were obtained, cultured and processed from commercial vendors ATCC, CellBank Australia, DMSZ, ECACC, and HSRRB (Table 1). All cell line media were supplemented with 10% FBS (HyClone, Catalog number SH30071.03).
# (§3) Cell lines were cultured in 37° C. and 5% CO2 incubator and expanded in T-75 flasks. In all cases cells were thawed from frozen stocks, expanded through≥1 passage using 1:3 dilutions, counted and assessed for viability using a ViCell counter (Beckman-Coulter) prior to plating. […] All cell lines were determined to be free of mycoplasma contamination as determined by a PCR detection methodology performed at Idexx Radil (Columbia, Mo., USA) and correctly identified by detection of a panel of SNPs.
# (§4) The debris counts were subtracted from raw nuclei counts.
# (§5) The compound's effect on cell proliferation was calculated from the cell counts of the treatments relative to the cell counts of the negative control (DMSO), in FIG. 1 and FIG. 3 denoted as ‘Normalized cell count’ (=‘xnorm’) on the y-axis. […] The model input were inhibition values per drug dose:
# (§6) I=1−xnorm • I: inhibition • xnorm: normalized cell count (median of three replicates)
# (§7) To favor combination effects at high inhibition the residuals were weighted with the observed inhibition at the same dose point. The overall combination score C of a drug combination is the sum of the weighted residuals over all concentrations:
# (§8) C=ΣCone (Idata*(Idata−Imodel)) • Idata: measured inhibition Imodel: inhibition according to HSA null hypothesis
# (§9) Robust combination z-scores (zC) were calculated as the ratio of the treatments' combination scores C and the median absolute deviation (mad) of non-interacting combinations:
# (§10) zC=C/mad(Czero) • Czero: combination scores of non-interacting combinations zC is an indicator for the strength of the combination with:
# (§11) In order to assess the effect of the triple combination all individual compounds, all three pair wise combinations, and the triple combination were tested in the same experiment.
# (§12) (Boston Bioproducts, Catalog number BM-220).
# LS-180 = test: as above; conditions: Homo sapiens, LS180; LS-180, 72 h, concentration giving 50% of cell counts relative to DMSO
# Description: as §1, §2, §3, §4, §5, §6, §7, §8, §9, §10, §11, §12
# SW837 = test: as above; conditions: Homo sapiens; SW837, 72 h, concentration giving 50% of cell counts relative to DMSO
# Description: as §1, §2, §3, §4, §5, §6, §7, §8, §9, §10, §11, §12
# LIM2551 = test: as above; conditions: LIM2551, 72 h, concentration giving 50% of cell counts relative to DMSO
# Description: as §1, §2, §3, §4, §5, §6, §7, §8, §9, §10, §11, §12
# RKO = test: as above; conditions: Homo sapiens, 72 h, concentration giving 50% of cell counts relative to DMSO
# Description: as §1, §2, §3, §4, §5, §6, §7, §8, §9, §10, §11, §12
# GP2d = test: as above; conditions: 72 h, concentration giving 50% of cell counts relative to DMSO
# Description: as §1, §2, §3, §4, §5, §6, §7, §8, §9, §10, §11, §12
# SW480 = test: as above; conditions: Homo sapiens; SW480, 72 h, concentration giving 50% of cell counts relative to DMSO
# Description: as §1, §2, §3, §4, §5, §6, §7, §8, §9, §10, §11, §12
# HCT-116 = test: as above; conditions: Homo sapiens; HCT-116, 72 h, concentration giving 50% of cell counts relative to DMSO
# Description: as §1, §2, §3, §4, §5, §6, §7, §8, §9, §10, §11, §12
# HT-29 = test: as above; conditions: Homo sapiens; HT-29, 72 h, concentration giving 50% of cell counts relative to DMSO
# Description: as §1, §2, §3, §4, §5, §6, §7, §8, §9, §10, §11, §12
# COLO-320 = test: as above; conditions: Homo sapiens; COLO-320, 72 h, concentration giving 50% of cell counts relative to DMSO
# Description: as §1, §2, §3, §4, §5, §6, §7, §8, §9, §10, §11, §12
# NCI-H508 = test: as above; conditions: Homo sapiens; NCI-H508, 72 h, concentration giving 50% of cell counts relative to DMSO
# Description: as §1, §2, §3, §4, §5, §6, §7, §8, §9, §10, §11, §12
# LS411N = test: as above; conditions: Homo sapiens, LS-411N, 72 h, concentration giving 50% of cell counts relative to DMSO
# Description: as §1, §2, §3, §4, §5, §6, §7, §8, §9, §10, §11, §12
# LoVo = test: as above; conditions: Homo sapiens, 96 h, concentration giving 50% of cell counts relative to DMSO
# Description: as §1, §2, §3, §4, §5, §6, §7, §8, §9, §10, §11, §12
# OUMS-23 = test: as above; conditions: OUMS-23, 72 h, concentration giving 50% of cell counts relative to DMSO
# Description: as §1, §2, §3, §4, §5, §6, §7, §8, §9, §10, §11, §12
# DLD-1 = test: as above; conditions: Homo sapiens; DLD-1, 72 h, concentration giving 50% of cell counts relative to DMSO
# Description: as §1, §2, §3, §4, §5, §6, §7, §8, §9, §10, §11, §12
# [1] = system: 15 colorectal cancer cell lines; test: Cell proliferation, summary over the cell line panel; conditions: single agent, across the cell lines in which growth was inhibited
# Description: as §1, §2, §4
# as §5, with “dose: […]” for “dose:”
# as §12
IC50 (COLO-205) [nM],IC50 (SW837) [nM],IC50 (SW480) [nM],IC50 (HCT-116) [nM],IC50 (HT-29) [nM],IC50 (COLO-320) [nM],IC50 (NCI-H508) [nM],IC50 (LoVo) [nM],IC50 (DLD-1) [nM],"IC50 values, magnitude in words [1]",Compound,IC50 (LS-180) [nM],IC50 (LIM2551) [nM],IC50 (RKO) [nM],IC50 (GP2d) [nM],IC50 (LS411N) [nM],IC50 (OUMS-23) [nM]
> 10000,> 10000,> 10000,9800,2700,8300,500,> 10000,> 10000,mostly micromolar,"Cc1nc(NC(=O)N2CCC[C@H]2C(N)=O)sc1-c1ccnc(C(C)(C)C(F)(F)F)c1 [BYL719, (S)-Pyrrolidine-1,2-dicarboxylic acid 2-amide 1-({4-methyl-5-[2-(2,2,2-trifluoro-1,1-dimethyl-ethyl)-pyridin-4-yl]-thiazol-2-yl}-amide)]",> 10000,2300,3900,500,> 10000,> 10000
4,51,55,38,4,> 300,7,7,153,nanomolar to sub-micromolar,"CC(=O)Nc1cccc(-n2c(=O)n(C3CC3)c(=O)c3c(Nc4ccc(I)cc4F)n(C)c(=O)c(C)c32)c1 [Trametinib, N-{3-[3-cyclopropyl-5-(2-fluoro-4-iodo-phenylamino)6,8-dimethyl-2,4,7-trioxo-3,4,6,7-tetrahydro-2H-pyrido[4,3-d]pyrimidin-1-yl]phenyl}acetamide]",18,5,21,> 300,7,> 300

Compound,IC50 (COLO-205) [nM],IC50 (SW837) [nM],IC50 (SW480) [nM],IC50 (HCT-116) [nM],IC50 (HT-29) [nM],IC50 (COLO-320) [nM],IC50 (NCI-H508) [nM],IC50 (LoVo) [nM],IC50 (DLD-1) [nM],"IC50 values, magnitude in words [1]",IC50 (LS-180) [nM],IC50 (LIM2551) [nM],IC50 (RKO) [nM],IC50 (GP2d) [nM],IC50 (LS411N) [nM],IC50 (OUMS-23) [nM]
"CN(C)C(=O)c1cc2cnc(Nc3ccc(N4CCNCC4)cn3)nc2n1C1CCCC1 [LEE011, 7-Cyclopentyl-2-(5-piperazin-1-yl-pyridin-2-ylamino)-7H-pyrrolo[2,3-d]pyrimidine-6-carboxylic acid dimethylamide]",1100,> 10000,1600,4500,800,2800,700,800,4100,mostly micromolar; also recorded: sub-micromolar to micromolar,1800,1300,1500,4500,2100,> 10000
